Results from ChEMBL document CHEMBL5053487 (J Med Chem, 2021).

Columns and labels:
[1] = biological target: T1, Estrogen receptor (Homo sapiens, UniProt P03372)
T1 sequence (P03372 whole entry): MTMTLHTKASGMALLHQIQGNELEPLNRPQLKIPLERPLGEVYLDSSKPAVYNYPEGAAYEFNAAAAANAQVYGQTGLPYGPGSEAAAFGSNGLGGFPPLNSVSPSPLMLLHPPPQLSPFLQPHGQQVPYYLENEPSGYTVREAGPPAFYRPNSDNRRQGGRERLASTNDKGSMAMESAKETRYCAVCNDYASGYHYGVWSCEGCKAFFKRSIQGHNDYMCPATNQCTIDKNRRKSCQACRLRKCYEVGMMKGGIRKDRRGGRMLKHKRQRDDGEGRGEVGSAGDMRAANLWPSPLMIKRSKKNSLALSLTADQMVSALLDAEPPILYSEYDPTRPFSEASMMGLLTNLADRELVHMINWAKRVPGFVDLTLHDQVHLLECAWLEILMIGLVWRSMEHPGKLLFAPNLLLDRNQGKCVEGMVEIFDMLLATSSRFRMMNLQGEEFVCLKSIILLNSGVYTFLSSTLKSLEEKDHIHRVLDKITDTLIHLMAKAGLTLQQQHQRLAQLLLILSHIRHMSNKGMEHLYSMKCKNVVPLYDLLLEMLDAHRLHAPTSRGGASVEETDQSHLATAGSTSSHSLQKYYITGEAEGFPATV
Description: Antagonist activity at ERalpha (unknown origin) assessed as inhibition of fluorescein-labeled PGC-1 coactivator recruitment incubated for 30 mins measured by TR-FRET assay

[2] = Antiproliferative activity on human MCF7/TAMR-1 cells at 10 uM assessed as ratio of T/C measured up to 144 hrs relative to control; type: functional, MCF-7/TAMR-1
[3] = tested on: MCF7; test: Antiproliferative activity on human MCF7 cells at 5 to 20 uM assessed as ratio of T/C measured up to 144 hrs relative to control; type: functional; settings: dose 5-20 µM

| SMILES | T/C [2] | also measured |
| --- | --- | --- |
| CCC(=C(c1ccc(O)cc1)c1ccc(/C=C/C(=O)NCCCCCNC(=O)CCc2nc3cc(O)ccc3[nH]2)cc1)c1ccccc1 (mixture of isomers) | – | IC50 [1]: 0.125 µM |
| CCC(=C(c1ccc(O)cc1)c1ccc(/C=C/C(=O)NCCCCCCNC(=O)CCc2nc3cc(OC)ccc3[nH]2)cc1)c1ccccc1 (mixture of isomers) | 40% | – |
| CCC(=C(c1ccc(O)cc1)c1ccc(/C=C/C(=O)NCCCNC(=O)CCCn2c(=S)[nH]c3ccccc3c2=O)cc1)c1ccccc1 (mixture of isomers) | 40% | – |
| CCC(=C(c1ccc(O)cc1)c1ccc(/C=C/C(=O)NCCCCCCNC(=O)CCc2nc3cc(O)ccc3[nH]2)cc1)c1ccccc1 (mixture of isomers) | 40% | – |
| CCC(=C(c1ccc(O)cc1)c1ccc(/C=C/C(=O)NCCCNC(=O)c2ccc(N3CCN(C(=O)CCCn4c(=S)[nH]c5ccccc5c4=O)CC3)cc2)cc1)c1ccccc1 (mixture of isomers) | 40% | – |
| C[C@]12CC[C@@H]3c4ccc(O)cc4C[C@@H](CCCCCCCCC[S+]([O-])CCCC(F)(F)C(F)(F)F)[C@H]3[C@@H]1CC[C@@H]2O (stereo partly specified) [FULVESTRANT] | – | T/C [3]: 30% |
